Experiments:
Human CD73 = biological target: T1, Human CD73 (Homo sapiens, UniProt P21589); experiment: CD73 Enzyme Assay (EnzChek PNP/MESG kinetic readout of AMP hydrolysis); format: biochemical; conditions: 0.25 nM hCD73, 25 μM AMP; read-out: CD73 Enzyme Assay IC50
T1 construct: purchased R&D Systems; host or cells: CHO cells
T1 sequence (P21589 27-549): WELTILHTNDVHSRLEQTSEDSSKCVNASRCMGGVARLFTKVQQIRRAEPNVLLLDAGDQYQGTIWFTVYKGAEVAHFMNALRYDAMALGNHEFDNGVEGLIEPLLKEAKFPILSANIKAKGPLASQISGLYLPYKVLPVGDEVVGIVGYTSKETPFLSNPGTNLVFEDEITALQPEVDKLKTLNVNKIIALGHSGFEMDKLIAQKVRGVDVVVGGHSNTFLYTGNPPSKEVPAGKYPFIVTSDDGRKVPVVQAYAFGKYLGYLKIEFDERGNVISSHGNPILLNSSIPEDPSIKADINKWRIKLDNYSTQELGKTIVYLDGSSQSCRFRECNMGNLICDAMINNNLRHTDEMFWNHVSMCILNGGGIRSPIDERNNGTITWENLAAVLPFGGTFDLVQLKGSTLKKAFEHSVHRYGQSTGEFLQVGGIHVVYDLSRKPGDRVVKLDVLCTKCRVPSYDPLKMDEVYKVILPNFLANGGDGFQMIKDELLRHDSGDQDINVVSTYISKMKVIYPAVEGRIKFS
Experimental: A compound of the present disclosure (5 μL) was transferred to a 384-well assay plate. The compound was added in a 15 point, 3-fold serial dilution (300 μM to 0.0002 μM) in DMSO. […] The plate was immediately placed in a plate reader (Synergy 2 or Spark 10), and a reading was taken every minute for 10 to 20 minutes in a kinetic run at 360 nm. The linear portion of the curve was used to determine the observed rate (initial velocity). Low signal controls containing 100 μM adenosine 5′-(α,β-methylene) diphosphate and high signal controls containing no compound were measured for each plate.
IC50 values were calculated using Dotmatics template equation for 4-parameter fit. Results are expressed as % inhibition using the following equation: […]

[1] = biological target: T2, CD73 on U138 human neuroglioma cells (Homo sapiens, UniProt P21589); experiment: CD73 Cell-Based Assay (inorganic phosphate from AMP, malachite green); conditions: AMP substrate, 2 hours at 37° C., read-out: CD73 Cell-Based assay IC50
T2 construct: U138 cells were obtained from ATCC and cultured in DMEM with 10% FBS; host or cells: U138 human neuroglioma cells
T2 sequence (P21589 27-549): T1 sequence (P21589 27-549)
Experimental: U138 human neuroglioma cells were used in these experiments. U138 cells were obtained from ATCC and cultured in DMEM with 10% FBS. 2500 cells were seeded into 96-well plate with 100 μL of media the day before the experiment. […] After washing, 100 μL of buffer was added to each well, then 100 μL of a mixture of AMP substrate (200 μM) and diluted compound was added to each well. The cells were incubated at 37° C. (with 5% CO2) for 2 hours. 50 μL of supernatant was transferred to a 96-well assay plate and the concentration of inorganic phosphate was determined using malachite green reagent (R&D System; Cat: DY996).

SMILES	IC50 (Human CD73) [nM]	IC50 [1] [nM]
N#Cc1c(Cl)nc2c(ccn2[C@@H]2O[C@H](CS(=O)(=O)CP(=O)(O)O)[C@@H](O)[C@H]2O)c1NC1CC2CC2C1 (stereo partly shown) [Compound 33]	< 10	< 10
C[C@@H](Nc1c(C#N)c(Cl)nc2c1ccn2[C@@H]1O[C@H](COP(=O)(O)CP(=O)(O)O)[C@@H](O)[C@H]1O)c1ccc(F)cc1 [Compound 34]	< 10	< 10
N#Cc1c(Cl)nc2c(ccn2[C@@H]2O[C@H](COP(=O)(O)CP(=O)(O)O)[C@@H](O)[C@H]2O)c1N1CC2CCCC2C1 (stereo partly shown) [Compound 43]	< 10	< 10
N#Cc1c(Cl)nc2c(ccn2[C@@H]2O[C@H](COP(=O)(O)CP(=O)(O)O)[C@@H](O)[C@H]2O)c1NC1CC(F)(F)C1 [Compound 47]	< 10	< 10
N#Cc1cnc2c(ccn2[C@@H]2O[C@H](COP(=O)(O)CP(=O)(O)O)[C@@H](O)[C@H]2O)c1NC1CCCC1 [Compound 48]	< 10	< 10
Cc1nc2c(ccn2[C@@H]2O[C@H](COP(=O)(O)CP(=O)(O)O)[C@@H](O)[C@H]2O)c(NC2CCCC2)c1C#N [Compound 49]	< 10	< 10
N#Cc1c(Cl)nc2c(ccn2[C@@H]2O[C@H](CO[C@H](CO)P(=O)(O)O)[C@@H](O)[C@H]2O)c1N1CC2CCCC2C1 (stereo partly drawn) [Compound 50, ((1S)-1-(((2R,3S,4R,5R)-5-(6-chloro-5-cyano-4-(hexahydrocyclopenta[c]pyrrol-2 (1H)-yl)-1H-pyrrolo[2,3-b]pyridin-1-yl)-3,4-dihydroxytetrahydrofuran-2-yl)methoxy)-2-hydroxyethyl)phosphonic acid]	< 10	< 10
N#Cc1c(Cl)nc2c(ncn2[C@@H]2O[C@H](COCP(=O)(O)O)[C@@H](O)[C@H]2O)c1NC1CCCC1 [Compound 55, ((((2R,3S,4R,5R)-5-(5-chloro-6-cyano-7-(cyclopentylamino)-3H-imidazo[4,5-b]pyridin-3-yl)-3,4-dihydroxytetrahydrofuran-2-yl)methoxy)methyl)phosphonic acid]	< 10	< 10
N#Cc1c(Cl)nc2c(ncn2[C@@H]2O[C@H](COCP(=O)(O)O)[C@@H](O)[C@H]2O)c1N1CC2CCCC2C1 (stereo partly shown) [Compound 57]	< 10	< 10
N#Cc1c(Cl)nc2c(ncn2[C@@H]2O[C@H](COCP(=O)(O)O)[C@@H](O)[C@H]2O)c1N1CC2CC2C1 (stereo partly shown) [Compound 58]	< 10	< 10
N#Cc1c(Cl)nc2c(ccn2[C@@H]2O[C@H](COCP(=O)(O)O)[C@@H](O)[C@H]2O)c1N1CC[C@H](F)C1 [Compound 60]	< 10	< 10
N#Cc1c(Cl)nc2c(cnn2[C@@H]2O[C@H](COCP(=O)(O)O)[C@@H](O)[C@H]2O)c1N1CC2CCCC2C1 (stereo partly shown) [Compound 61]	< 10	< 10
N#Cc1c(Cl)nc2c(ccn2[C@@H]2O[C@H](COCP(=O)(O)O)[C@@H](O)[C@H]2O)c1N1CC[C@@H](F)C1 [Compound 66]	< 10	< 10
N#Cc1c(Cl)nc2c(ccn2[C@@H]2O[C@H](COCP(=O)(O)O)[C@@H](O)[C@H]2O)c1N1C[C@@H](F)[C@H](F)C1 [Compound 68]	< 10	< 10
N#Cc1c(Cl)nc2c(cnn2[C@@H]2O[C@H](COCP(=O)(O)O)[C@@H](O)[C@H]2O)c1NC1CCCC1 [Compound 69, ((((2R,3S,4R,5R)-5-(6-chloro-5-cyano-4-(cyclopentylamino)-1H-pyrazolo[3,4-b]pyridin-1-yl)-3,4-dihydroxytetrahydrofuran-2-yl)methoxy)methyl)phosphonic acid]	< 10	< 10
N#Cc1c(Cl)nc2c(cnn2[C@@H]2O[C@H](COP(=O)(O)CP(=O)(O)O)[C@@H](O)[C@H]2O)c1N1CC2CC2C1 (stereo partly shown) [Compound 72]	< 10	< 10
N#Cc1c(Cl)nc2c(cnn2[C@@H]2O[C@H](COCP(=O)(O)O)[C@@H](O)[C@H]2O)c1N1CC[C@H](F)C1 [Compound 79]	< 10	< 10
N#Cc1c(Cl)nc2c(cnn2[C@@H]2O[C@H](COCP(=O)(O)O)[C@@H](O)[C@H]2O)c1NC1CC(F)(F)C1 [Compound 81]	< 10	< 10

Second part, the molecule after the results:

IC50 (Human CD73) [nM]	IC50 [1] [nM]	SMILES
< 10	< 10	C[C@H](Nc1c(C#N)c(Cl)nc2c1ccn2[C@@H]1O[C@H](COP(=O)(O)CP(=O)(O)O)[C@@H](O)[C@H]1O)c1ccc(F)cc1 [Compound 35]
< 10	< 10	N#Cc1c(Cl)nc2c(ccn2[C@@H]2O[C@H](COP(=O)(O)CP(=O)(O)O)[C@@H](O)[C@H]2O)c1NC1CCC1 [Compound 36]
< 10	< 10	N#Cc1c(Cl)nc2c(ccn2[C@@H]2O[C@H](COP(=O)(O)CP(=O)(O)O)[C@@H](O)[C@H]2O)c1N1CCC(F)(F)C1 [Compound 37]
< 10	10 to 100	NC(=O)c1c(Cl)nc2c(ccn2C2O[C@H](COCP(=O)(O)O)[C@@H](O)[C@H]2O)c1NC1CCCC1 (stereo partly shown) [Compound 39]
< 10	< 10	Cc1nc2c(ccn2[C@@H]2O[C@H](COCP(=O)(O)O)[C@@H](O)[C@H]2O)c(NC2CCCC2)c1C#N [Compound 44]
< 10	< 10	N#Cc1c(Cl)nc2c(ccn2[C@@H]2O[C@H](COCP(=O)(O)O)[C@@H](O)[C@H]2O)c1N[C@@H]1CCC(F)(F)C1 [Compound 46]
< 10	< 10	N#Cc1c(Cl)nc2c(ccn2[C@@H]2O[C@H](COC(CO)P(=O)(O)O)[C@@H](O)[C@H]2O)c1N1CC2CCCC2C1 (stereo partly shown) [Compound 51]
< 10	< 10	N#Cc1c(Cl)nc2c(ncn2[C@@H]2O[C@H](COCP(=O)(O)O)[C@@H](O)[C@H]2O)c1NC1CC2CC2C1 (stereo partly shown) [Compound 56]
< 10	< 10	N#Cc1c(Cl)nc2c(cnn2[C@@H]2O[C@H](COCP(=O)(O)O)[C@@H](O)[C@H]2O)c1N1CCC(F)(F)C1 [Compound 62, ((((2R,3S,4R,5R)-5-(6-chloro-5-cyano-4-(3,3-difluoropyrrolidin-1-yl)-1H-pyrazolo[3,4-b]pyridin-1-yl)-3,4-dihydroxytetrahydrofuran-2-yl)methoxy)methyl)phosphonic acid]
< 10	< 10	N#Cc1c(Cl)nc2c(ncn2[C@@H]2O[C@H](COP(=O)(O)CP(=O)(O)O)[C@@H](O)[C@H]2O)c1N1CC2CC2C1 (stereo partly shown) [Compound 63]
< 10	< 10	N#Cc1c(Cl)nc2c(ccn2[C@@H]2O[C@H](COCP(=O)(O)O)[C@@H](O)[C@H]2O)c1N1CC(F)(F)C1 [Compound 65]
< 10	< 10	N#Cc1c(Cl)nc2c(ccn2[C@@H]2O[C@H](COCP(=O)(O)O)[C@@H](O)[C@H]2O)c1N1C[C@@H](F)[C@@H](F)C1 [Compound 67, ((((2R,3S,4R,5R)-5-(6-chloro-5-cyano-4-((3S,4R)-3,4-difluoropyrrolidin-1-yl)-1H-pyrrolo[2,3-b]pyridin-1-yl)-3,4-dihydroxytetrahydrofuran-2-yl)methoxy)methyl)phosphonic acid]
< 10	< 10	N#Cc1c(Cl)nc2c(cnn2[C@@H]2O[C@H](COCP(=O)(O)O)[C@@H](O)[C@H]2O)c1NC1CC2CC2C1 (stereo partly shown) [Compound 70]
< 10	< 10	N#Cc1c(Cl)nc2c(cnn2[C@@H]2O[C@H](COCP(=O)(O)O)[C@@H](O)[C@H]2O)c1N1CC2CC2C1 (stereo partly shown) [Compound 71]
< 10	< 10	N#Cc1c(Cl)nc2c(ccn2[C@@H]2O[C@H](CS(=O)(=O)CP(=O)(O)O)[C@@H](O)[C@H]2O)c1N[C@H]1C[C@H](F)C1 [Compound 76, (((((2S,3S,4R,5R)-5-(6-chloro-5-cyano-4-(((1r,3R)-3-fluorocyclobutyl)amino)-1H-pyrrolo[2,3-b]pyridin-1-yl)-3,4-dihydroxytetrahydrofuran-2-yl)methyl)sulfonyl)methyl)phosphonic acid]
< 10	< 10	N#Cc1c(Cl)nc2c(cnn2[C@@H]2O[C@H](COCP(=O)(O)O)[C@@H](O)[C@H]2O)c1N1CC(F)(F)C1 [Compound 78]
< 10	< 10	N#Cc1c(Cl)nc2c(cnn2[C@@H]2O[C@H](COCP(=O)(O)O)[C@@H](O)[C@H]2O)c1N1C[C@@H](F)[C@H](F)C1 [Compound 80]

Reference: US12331068B2, “Compositions and methods for inhibiting CD73” (Peloton Therapeutics, Inc., priority 2018, dated 2025)
